Tests used:
SKBR3 cells [1] = test: Uptake mechanism of GO nanodrug structures with endocytosis inhibitors (flow cytometry); format: cell-based, human; details: 1 hour pre-incubation with inhibitor, 15 mins with nanoparticles, FIG. 10
Method: The uptake mechanism of the GO nanodrug structures was then investigated using various endocytosis inhibitors in comparison with the graphene oxide drug metamaterial described here-above, free of any drug active (GO control).
Different endocytosis inhibitors were tested: • Cytochalasin D, an inhibitor of macropinocytosis-dependent endocytosis in a dosage of 10, 5 and 1 (μM); • Genistein, an inhibitor of caveolae-mediated endocytosis in a dosage of 100, 30 and 25 (μM); and • Chlorpromazine (CMZ), an inhibitor of clathrin-mediated endocytosisin a dosage of 5, 1 and 0.5 (μM).
Cellular internalization of each nanostructure was followed as described here-after.
SKBR3 cells were seeded to a density of 1.0×10^5 cells per well in a 12-well plates followed by an overnight incubation. The cells were rinsed with PBS and pre-incubated with different concentrations of the appropriate endocytic inhibitor in serum-free RPMI 1640 media, for 1 hour. The media was then replaced with the same concentration of inhibitors in serum-containing RPMI 1640 media, the nanoparticles were added and cells were incubated for 15 mins. Following incubation, the medium was removed and cells were rinsed several times with cold PBS. The cells were collected with trypsin EDTA and analyzed using flow cytometry analysis.

SKBR3 cells [2] = test: Uptake efficiency of GO-HER2 antibody nanodrug structures after preincubation with Lapatinib; format: cell-based, human; details: SKBR3 cells preincubated with Lapatinib; FIG. 11
Description: Abscissa: amount of Lapatinib (μM). Ordinate: uptake efficiency (%).
Lapatinib is a known HER2 tyrosine kinase inhibitor, which induces stabilization and accumulation of HER2.

[3] = tested on: MDA-MB-231 (human breast basal epithelial cancer cells); details: MDA-MB-231 cells, different concentrations of the peptide; Kawamoto et al. 2013; cited from earlier work

Molecule	inhibition of internalization (cellular uptake) of GO nanodrug structures (SKBR3 cells [1])	further results
CN(C)CCCN1c2ccccc2Sc2ccc(Cl)cc21 [Chlorpromazine]	did not show any notable inhibition	–
C=C1[C@@H](C)[C@H]2[C@H](Cc3ccccc3)NC(=O)[C@]23[C@H](OC(C)=O)/C=C/[C@@](C)(O)C(=O)[C@@H](C)C/C=C/[C@H]3[C@@H]1O [Cytochalasin D]	significantly inhibited the internalization	–
O=c1c(-c2ccc(O)cc2)coc2cc(O)cc(O)c12 [Genistein]	did not show any notable inhibition	–
CS(=O)(=O)CCNCc1ccc(-c2ccc3ncnc(Nc4ccc(OCc5cccc(F)c5)c(Cl)c4)c3c2)o1 [Lapatinib]	–	effect on uptake efficiency of GO-HER2 antibody nanodrug structures (SKBR3 cells [2]): dose-dependent reduction in intake
KLLLKLLKKLLKLLKKK (anti-cancer cationic lytic peptide) [cationic lytic anti-cancer peptide, disintegrates the cell membrane]	–	effect on cell proliferation [3]: dose-dependent reduction in cell proliferation

From US20190091163A1, “NANO-SIZED DRUG DELIVERY STRUCTURE” (INSTITUT NATIONAL DE LA SANTE ET DE LA RECHERCHE MEDICALE …, priority 2016, published 2019)
